From publication PMC12505902, “Inhibitors of trehalose-6-phosphate synthase activity in fungal pathogens compromise thermal tolerance pathways” (mBio, 2025)

How the values were obtained:
Assay in all cases: Fungicidal spot assay on compound-free YPD plates
Type in all cases: cell-based
[1] = test system: C. deneoformans
Protocol: (§1) Fig 4 4456dh inhibits the growth of Candida and Cryptococcus species. Two-fold dose response assays were performed against (A) C. albicans at 42°C and C. auris at 39°C, (B) C. glabrata at 42°C, and (C) C. neoformans, C. deneoformans, and C. gattii at 37°C. 4456dh was administered at the concentrations indicated. Cultures were grown in YPD at the listed temperatures for 48 hours for Candida species and 72 hours for Cryptococcus species. Experimental temperatures reflect the temperatures at which the fungi experience heat stress. Left: relative growth of treated samples was calculated by averaging technical triplicates and normalizing the OD600 of each treated well to the average OD600 of the untreated WT controls, after the absorbance due to the compound was subtracted. The MIC80 values, calculated based on the OD600 values, are indicated in the white text on each heat map. Right: representative spot assays show the ability of cells to grow after exposure to 4456dh and indicate fungicidal activity of 4456dh. TEXT PRINTED IN THE PICTURE: (A) 4456dh: C. albicans 42 °C: 13 mM; C. auris 39 °C: 7 mM | (B) 4456dh: C. glabrata 42 °C: 7.8 μM | (C) 4456dh: C. neoformans 37 °C: 7 mM; C. deneoformans 37 °C: 3 mM; C. gattii 37 °C: 7 mM DOUBTS OF THE COPYIST ABOUT THIS PICTURE: 4456dh, all panels: the picture prints no measure name with the white values on the heat maps, so each value is given only with its organism and temperature
(§2) We next tested the activity of 4456dh on Cryptococcus species at 37°C.
(§3) 123 hours. […]
(§4) 126 medium. Growth was plotted as a heat map using Excel.
(§5) 127 Wild-t y pe C. neoformans strains H99, wild-type C. deneoformans JEC21 and wild- t y pe C. gattii
(§6) 128 R265 were cultured overnight in YPD (yeast-peptone- dextrose) medium at 30 °C. Growth of the
(§7) 129 overnight cultures was quantified by measuring the OD600 and corrected for the background
(§8) 130 absorbance of the medium. Antifungal potency for 4456dh was assessed by minimum inhibitory
(§9) 131 concentration (MIC) dose-response assays performed under standard Clinical and Lab Standards
(§10) 132 Institute (CLSI) conditions. A volume of 125 µL from each cell suspension was dispensed into the
(§11) 133 wells of 96-well flat-bottom microtiter plates (Corning). An additional 25 µL of 4456dh from a series
(§12) 134 of dilutions from the 157 mM stock solution prepared in water was added to each well. Following […]
(§13) 137 replicates. Growth, as determined by a reading of absorbance at 600 nm, was normalized to
(§14) 138 untreated controls and was corrected for the absorbance of 4456dh in the YPD medium. […]
(§15) 139 minimum inhibitory concentration causing 80% growth reduction, or MIC80, was determined based […]
(§16) 157 Optical density (OD600) was determined with an Infinite PRO plate reader ( Tecan). […]

[2] = test system: C. gattii; settings: 37°C exposure
Protocol: as §1, §2, §3, §4, §5, §6, §7, §8, §9, §10, §11, §12, §13, §14, §15, §16

[3] = test system: C. neoformans; settings: 37°C exposure
Protocol: as §1, §2, §3, §4, §5, §6, §7, §8, §9, §10, §11, §12, §13, §14, §15, §16

Cn1cc(-c2csc(NC(=O)Cc3ccccn3)n2)cn1 [Compound 4456dh]
fungicidal activity ([1]; 30°C, 13 mM 4456dh): displayed fungicidal activity
fungicidal activity ([1]; 37°C exposure): Fungicidal activity of 4456dh was also detected
fungicidal activity [2]: Fungicidal activity of 4456dh was also detected
fungicidal activity [3]: Fungicidal activity of 4456dh was also detected
